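The concentration for 50% growth inhibition is given as GI50. TGI marks complete inhibition of growth.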
Key:
Test in all cases: growth of human tumour cells (NCI), 384-well format
CAKI-1 renal = system: CAKI-1 renal
NCI-H522 lung = system: NCI-H522 lung
SF-539 CNS = system: SF-539 CNS
MDA-MB-231 breast = system: MDA-MB-231 breast
MOLT-4 leukemia = system: MOLT-4 leukemia
HCT-116 colon = system: HCT-116 colon
EKVX NSCLC = system: EKVX NSCLC
OVCAR-8 ovarian = system: OVCAR-8 ovarian
M14 melanoma = system: M14 melanoma
OVCAR-3 ovarian = system: OVCAR-3 ovarian
U251 glioblastoma = system: U251 glioblastoma
MALME-3M melanoma = system: MALME-3M melanoma
SK-MEL-5 melanoma = system: SK-MEL-5 melanoma
UACC-257 melanoma = system: UACC-257 melanoma
SNB-75 CNS = system: SNB-75 CNS
PC-3 prostate = system: PC-3 prostate
786-0 renal = system: 786-0 renal
A498 renal = system: A498 renal
HOP-92 NSCLC = system: HOP-92 NSCLC
A549 NSCLC = system: A549 NSCLC
NCI-H322M lung = system: NCI-H322M lung
RPMI-8226 leukemia = system: RPMI-8226 leukemia
SNB-19 CNS = system: SNB-19 CNS
NCI-H226 lung = system: NCI-H226 lung
IGROV1 ovarian = system: IGROV1 ovarian
RXF 393 renal = system: RXF 393 renal
SK-OV-3 ovarian = system: SK-OV-3 ovarian
K-562 leukemia = system: K-562 leukemia
TK-10 renal = system: TK-10 renal

CNc1ncc2cc(-c3cc(NC(=O)NCCC(C)(C)C)c(F)cc3C)c(C)nc2n1
GI50 (CAKI-1 renal): 134 nM
TGI (CAKI-1 renal): 1230 nM
GI50 (NCI-H522 lung): 670 nM
TGI (NCI-H522 lung): 9380 nM
GI50 (SF-539 CNS): 1750 nM
TGI (SF-539 CNS): 19200 nM
GI50 (MDA-MB-231 breast): 47.9 nM
TGI (MDA-MB-231 breast): 397 nM
GI50 (MOLT-4 leukemia): 360 nM
TGI (MOLT-4 leukemia): 15400 nM
GI50 (HCT-116 colon): 58.5 nM
TGI (HCT-116 colon): 916 nM
GI50 (EKVX NSCLC): 2090 nM
TGI (EKVX NSCLC): 82400 nM
GI50 (OVCAR-8 ovarian): 489 nM
TGI (OVCAR-8 ovarian): 48900 nM
GI50 (M14 melanoma): < 10 nM
TGI (M14 melanoma): 36.4 nM
GI50 (OVCAR-3 ovarian): 1230 nM
TGI (OVCAR-3 ovarian): 55800 nM
GI50 (U251 glioblastoma): 506 nM
TGI (U251 glioblastoma): 13000 nM
GI50 (MALME-3M melanoma): < 10 nM
GI50 (SK-MEL-5 melanoma): 38.2 nM
TGI (SK-MEL-5 melanoma): 4200 nM
GI50 (UACC-257 melanoma): 16.6 nM
TGI (UACC-257 melanoma): 119 nM
GI50 (SNB-75 CNS): 361 nM
TGI (SNB-75 CNS): 15400 nM
GI50 (PC-3 prostate): 13300 nM
TGI (PC-3 prostate): > 100000 nM
GI50 ([…]-0 renal): 676 nM
TGI (786-0 renal): 39100 nM
GI50 (A498 renal): 294 nM
TGI (A498 renal): > 100000 nM
GI50 (HOP-92 NSCLC): 166 nM
TGI (HOP-92 NSCLC): 409 nM
GI50 (A549 NSCLC): 711 nM
TGI (A549 NSCLC): 15200 nM
GI50 (NCI-H322M lung): 318 nM
TGI (NCI-H322M lung): 12900 nM
GI50 (RPMI-8226 leukemia): 162 nM
TGI (RPMI-8226 leukemia): 585 nM
GI50 (SNB-19 CNS): 1550 nM
TGI (SNB-19 CNS): 71000 nM
GI50 (NCI-H226 lung): 299 nM
TGI (NCI-H226 lung): 15700 nM
GI50 (IGROV1 ovarian): 157 nM
TGI (IGROV1 ovarian): 1050 nM
GI50 (RXF 393 renal): 440 nM
TGI (RXF 393 renal): 10500 nM
GI50 (SK-OV-3 ovarian): 303 nM
TGI (SK-OV-3 ovarian): 4160 nM
GI50 (K-562 leukemia): 126 nM
TGI (K-562 leukemia): 284 nM
GI50 (TK-10 renal): 599 nM
TGI (TK-10 renal): 4670 nM

— PubChem BioAssay (NCI)
